From the NIST ThermoML archive (doi:10.1016/j.jct.2006.09.015)
Numbers after ± are expanded uncertainties.

Key:
[1] = relative permittivity at various frequencies (dimensionless); conditions: 101.3 kPa, Liquid, Frequency=3 MHz, Bridge type OH-301 made in Radelcis, Hungary
[2] = relative permittivity at various frequencies (dimensionless); xn = mol fraction of the nth substance listed; conditions: 101.3 kPa, Liquid, Frequency=3 MHz, Bridge type OH-301 made in Radelcis, Hungary

COCCO [2-methoxyethan-1-ol]
[1]
Conditions | relative permittivity
293.15 K | 17.38 ± 0.04
298.15 K | 16.95 ± 0.04
303.15 K | 16.56 ± 0.04

COCCO [2-methoxyethan-1-ol] + OCCOCCO
[2], x1 = 1
Conditions | relative permittivity
293.15 K | 17.38 ± 0.04
298.15 K | 16.95 ± 0.04
303.15 K | 16.56 ± 0.04

COCCO [2-methoxyethan-1-ol] + OCCOCCOCCO
[2], x1 = 1
Conditions | relative permittivity
293.15 K | 17.38 ± 0.04
298.15 K | 16.95 ± 0.04
303.15 K | 16.56 ± 0.04

COCCO [2-methoxyethan-1-ol] + OCCOCCOCCOCCO
[2], x1 = 1
Conditions | relative permittivity
293.15 K | 17.38 ± 0.04
298.15 K | 16.95 ± 0.04
303.15 K | 16.56 ± 0.04

OCCOCCO [diethylene glycol]
[1]
Conditions | relative permittivity
293.15 K | 31.81 ± 0.04
298.15 K | 30.95 ± 0.04
303.15 K | 30.03 ± 0.04

OCCOCCO [diethylene glycol] + COCCO
relative permittivity, [2]
Conditions | 293.15 K | 298.15 K | 303.15 K
x2 = 0 | 31.81 ± 0.04 | 30.95 ± 0.04 | 30.03 ± 0.04
x2 = 0.0414 | 31.69 ± 0.04 | 30.71 ± 0.04 | 29.85 ± 0.04
x2 = 0.0999 | 31.49 ± 0.04 | 30.39 ± 0.04 | 29.49 ± 0.04
x2 = 0.2077 | 31.23 ± 0.04 | 29.85 ± 0.04 | 29.01 ± 0.04
x2 = 0.3001 | 31.03 ± 0.04 | 29.41 ± 0.04 | 28.45 ± 0.04
x2 = 0.4094 | 30.32 ± 0.04 | 28.67 ± 0.04 | 27.49 ± 0.04
x2 = 0.4998 | 29.56 ± 0.04 | 27.81 ± 0.04 | 26.61 ± 0.04
x2 = 0.5994 | 28.32 ± 0.04 | 26.68 ± 0.04 | 25.36 ± 0.04
x2 = 0.6996 | 26.65 ± 0.04 | 24.99 ± 0.04 | 23.55 ± 0.04
x2 = 0.7996 | 24.25 ± 0.04 | 22.78 ± 0.04 | 21.64 ± 0.04
x2 = 0.9018 | 21.43 ± 0.04 | 20.27 ± 0.04 | 19.39 ± 0.04
x2 = 0.9463 | 19.98 ± 0.04 | 18.88 ± 0.04 | 18.25 ± 0.04

OCCOCCOCCO [triethylene glycol]
[1]
Conditions | relative permittivity
293.15 K | 23.69 ± 0.04
298.15 K | 23.07 ± 0.04
303.15 K | 22.43 ± 0.04

OCCOCCOCCO [triethylene glycol] + COCCO
relative permittivity, [2]
Conditions | 293.15 K | 298.15 K | 303.15 K
x2 = 0 | 23.69 ± 0.04 | 23.07 ± 0.04 | 22.43 ± 0.04
x2 = 0.05 | 23.69 ± 0.04 | 23.05 ± 0.04 | 22.42 ± 0.04
x2 = 0.1 | 23.7 ± 0.04 | 23.03 ± 0.04 | 22.41 ± 0.04
x2 = 0.2003 | 23.72 ± 0.04 | 23.06 ± 0.04 | 22.48 ± 0.04
x2 = 0.2999 | 23.76 ± 0.04 | 23.07 ± 0.04 | 22.48 ± 0.04
x2 = 0.4009 | 23.79 ± 0.04 | 23.06 ± 0.04 | 22.44 ± 0.04
x2 = 0.5 | 23.82 ± 0.04 | 22.95 ± 0.04 | 22.35 ± 0.04
x2 = 0.5999 | 23.77 ± 0.04 | 22.76 ± 0.04 | 21.91 ± 0.04
x2 = 0.7 | 23.62 ± 0.04 | 22.3 ± 0.04 | 21.39 ± 0.04
x2 = 0.8 | 22.92 ± 0.04 | 21.54 ± 0.04 | 20.43 ± 0.04
x2 = 0.9 | 21.26 ± 0.04 | 19.93 ± 0.04 | 19.1 ± 0.04
x2 = 0.9499 | 19.75 ± 0.04 | 18.81 ± 0.04 | 18.14 ± 0.04
